Columns and labels:
Assay in all cases: Glasshouse herbicidal test, pre- and post-emergence (Table B1)
Assay type in all cases: in vivo
[1] = system: Amaranthus palmeri (AMAPA); details: 130 g/h, evaluated after 13 days; for percentage damage caused to the plant, POST Application AMAPA: post-emergence; for percentage damage caused to the plant, PRE Application AMAPA: pre-emergence
Method: (§1) Seeds of a variety of test species are sown in standard soil in pots (Lolium perenne (LOLPE), Amaranthus retoflexus (AMARE), Amaranthus palmeri (AMAPA), Ablution theophrasti (ABUTH), Setaria faberi (SETFA), Echinochloa crus-galli (ECHCG), Ipomoea hederacea (IPOHE)). After cultivation for one day (pre-emergence) or after 8 days cultivation (post-emergence) under controlled conditions in a glasshouse (at 24/16° C., day/night; 14 hours light; 65% humidity), the plants are sprayed with an aqueous spray solution derived from the formulation of the technical active ingredient in acetone/water (50:50) solution containing 0.5% Tween 20 (polyoxyethelyene sorbitan monolaurate, CAS RN 9005-64-5). Compounds are applied at 130 g/h unless otherwise indicated. The test plants are then grown in a glasshouse under controlled conditions in a glasshouse (at 24/16° C., day/night; 14 hours light; 65% humidity) and watered twice daily. After 13 days for pre and post-emergence, the test is evaluated for the percentage damage caused to the plant. The biological activities are shown in the following table on a five-point scale (5=80-100%; 4=60-79%; 3=40-59%; 2=20-39%; 1=0-19%).

[2] = system: Amaranthus retoflexus (AMARE); details: 130 g/h, evaluated after 13 days; for percentage damage caused to the plant, POST Application AMARE: post-emergence; for percentage damage caused to the plant, PRE Application AMARE: pre-emergence
Method: as §1

[3] = system: Echinochloa crus-galli (ECHCG); details: 130 g/h, evaluated after 13 days; for percentage damage caused to the plant, POST Application ECHCG: post-emergence; for percentage damage caused to the plant, PRE Application ECHCG: pre-emergence
Method: as §1

[4] = system: Ipomoea hederacea (IPOHE); details: 130 g/h, evaluated after 13 days; for percentage damage caused to the plant, POST Application IPOHE: post-emergence; for percentage damage caused to the plant, PRE Application IPOHE: pre-emergence
Method: as §1

Setaria faberi (SETFA) = details: 130 g/h, evaluated after 13 days; for percentage damage caused to the plant, POST Application SETFA: post-emergence; for percentage damage caused to the plant, PRE Application SETFA: pre-emergence
Method: as §1

CN(c1c(OC(F)F)ccc(C(=O)Nc2nnnn2C)c1Cl)S(C)(=O)=O [Compound 1.071]
3 (3=40-59%): percentage damage caused to the plant, PRE Application IPOHE [4]
5 (5=80-100%): percentage damage caused to the plant, POST Application AMAPA [1] | percentage damage caused to the plant, PRE Application AMAPA [1] | percentage damage caused to the plant, POST Application AMARE [2] | percentage damage caused to the plant, PRE Application AMARE [2] | percentage damage caused to the plant, POST Application ECHCG [3] | percentage damage caused to the plant, PRE Application ECHCG [3] | percentage damage caused to the plant, POST Application SETFA (Setaria faberi (SETFA)) | percentage damage caused to the plant, PRE Application SETFA (Setaria faberi (SETFA))
4 (4=60-79%): percentage damage caused to the plant, POST Application IPOHE [4]

CCN(c1c(OC(F)(F)F)ccc(C(=O)Nc2nnnn2C)c1Cl)S(C)(=O)=O [Compound 1.079]
5 (5=80-100%): percentage damage caused to the plant, POST Application AMAPA [1] | percentage damage caused to the plant, PRE Application AMAPA [1] | percentage damage caused to the plant, POST Application AMARE [2] | percentage damage caused to the plant, PRE Application AMARE [2] | percentage damage caused to the plant, PRE Application ECHCG [3] | percentage damage caused to the plant, POST Application SETFA (Setaria faberi (SETFA)) | percentage damage caused to the plant, PRE Application SETFA (Setaria faberi (SETFA))
4 (4=60-79%): percentage damage caused to the plant, POST Application IPOHE [4] | percentage damage caused to the plant, PRE Application IPOHE [4]

CN(c1c(OC(F)(F)F)ccc(C(=O)Nc2nnnn2C)c1Cl)S(C)(=O)=O [Compound 1.077]
5 (5=80-100%): percentage damage caused to the plant, POST Application AMAPA [1] | percentage damage caused to the plant, PRE Application AMAPA [1] | percentage damage caused to the plant, POST Application AMARE [2] | percentage damage caused to the plant, PRE Application AMARE [2] | percentage damage caused to the plant, PRE Application ECHCG [3] | percentage damage caused to the plant, POST Application SETFA (Setaria faberi (SETFA)) | percentage damage caused to the plant, PRE Application SETFA (Setaria faberi (SETFA))
4 (4=60-79%): percentage damage caused to the plant, POST Application IPOHE [4] | percentage damage caused to the plant, PRE Application IPOHE [4]

COCCS(=O)(=O)Nc1c(OC(F)F)ccc(C(=O)Nc2nnnn2C)c1Cl [Compound 1.014]
5 (5=80-100%): percentage damage caused to the plant, POST Application AMAPA [1] | percentage damage caused to the plant, PRE Application AMAPA [1] | percentage damage caused to the plant, POST Application AMARE [2]
4 (4=60-79%): percentage damage caused to the plant, POST Application ECHCG [3] | percentage damage caused to the plant, POST Application SETFA (Setaria faberi (SETFA))
3 (3=40-59%): percentage damage caused to the plant, PRE Application AMARE [2] | percentage damage caused to the plant, POST Application IPOHE [4]
1 (1=0-19%): percentage damage caused to the plant, PRE Application ECHCG [3] | percentage damage caused to the plant, PRE Application IPOHE [4] | percentage damage caused to the plant, PRE Application SETFA (Setaria faberi (SETFA))

CC(C)CS(=O)(=O)Nc1c(OC(F)(F)F)ccc(C(=O)Nc2nnnn2C)c1Cl [Compound 1.074]
5 (5=80-100%): percentage damage caused to the plant, POST Application AMAPA [1] | percentage damage caused to the plant, PRE Application AMAPA [1] | percentage damage caused to the plant, POST Application AMARE [2] | percentage damage caused to the plant, PRE Application AMARE [2] | percentage damage caused to the plant, POST Application ECHCG [3] | percentage damage caused to the plant, POST Application IPOHE [4] | percentage damage caused to the plant, POST Application SETFA (Setaria faberi (SETFA))
4 (4=60-79%): percentage damage caused to the plant, PRE Application ECHCG [3]
3 (3=40-59%): percentage damage caused to the plant, PRE Application IPOHE [4] | percentage damage caused to the plant, PRE Application SETFA (Setaria faberi (SETFA))

CCS(=O)(=O)N(C)c1c(OC(F)F)ccc(C(=O)Nc2nnnn2C)c1Cl [Compound 1.087]
5 (5=80-100%): percentage damage caused to the plant, POST Application AMAPA [1] | percentage damage caused to the plant, PRE Application AMAPA [1] | percentage damage caused to the plant, POST Application AMARE [2] | percentage damage caused to the plant, PRE Application AMARE [2] | percentage damage caused to the plant, POST Application ECHCG [3] | percentage damage caused to the plant, PRE Application ECHCG [3] | percentage damage caused to the plant, PRE Application IPOHE [4] | percentage damage caused to the plant, POST Application SETFA (Setaria faberi (SETFA)) | percentage damage caused to the plant, PRE Application SETFA (Setaria faberi (SETFA))
4 (4=60-79%): percentage damage caused to the plant, POST Application IPOHE [4]

Cn1nnnc1NC(=O)c1ccc(OC(F)(F)F)c(NS(=O)(=O)C2CC2)c1Cl [Compound 1.073]
5 (5=80-100%): percentage damage caused to the plant, POST Application AMAPA [1] | percentage damage caused to the plant, PRE Application AMAPA [1] | percentage damage caused to the plant, POST Application AMARE [2] | percentage damage caused to the plant, PRE Application AMARE [2] | percentage damage caused to the plant, POST Application ECHCG [3] | percentage damage caused to the plant, PRE Application ECHCG [3] | percentage damage caused to the plant, POST Application IPOHE [4] | percentage damage caused to the plant, PRE Application IPOHE [4] | percentage damage caused to the plant, POST Application SETFA (Setaria faberi (SETFA)) | percentage damage caused to the plant, PRE Application SETFA (Setaria faberi (SETFA))

CC(C)CS(=O)(=O)Nc1c(OC(F)F)ccc(C(=O)Nc2nnnn2C)c1Cl [Compound 1.070]
3 (3=40-59%): percentage damage caused to the plant, PRE Application ECHCG [3] | percentage damage caused to the plant, PRE Application SETFA (Setaria faberi (SETFA))
4 (4=60-79%): percentage damage caused to the plant, PRE Application AMAPA [1] | percentage damage caused to the plant, PRE Application AMARE [2] | percentage damage caused to the plant, POST Application ECHCG [3] | percentage damage caused to the plant, POST Application IPOHE [4] | percentage damage caused to the plant, POST Application SETFA (Setaria faberi (SETFA))
2 (2=20-39%): percentage damage caused to the plant, PRE Application IPOHE [4]
5 (5=80-100%): percentage damage caused to the plant, POST Application AMAPA [1] | percentage damage caused to the plant, POST Application AMARE [2]

Cn1nnnc1NC(=O)c1ccc(OC(F)(F)F)c(NS(=O)(=O)CC2CC2)c1Cl [Compound 1.056]
5 (5=80-100%): percentage damage caused to the plant, POST Application AMAPA [1] | percentage damage caused to the plant, PRE Application AMAPA [1] | percentage damage caused to the plant, POST Application AMARE [2] | percentage damage caused to the plant, PRE Application AMARE [2] | percentage damage caused to the plant, POST Application ECHCG [3] | percentage damage caused to the plant, PRE Application ECHCG [3] | percentage damage caused to the plant, POST Application IPOHE [4] | percentage damage caused to the plant, PRE Application IPOHE [4] | percentage damage caused to the plant, POST Application SETFA (Setaria faberi (SETFA)) | percentage damage caused to the plant, PRE Application SETFA (Setaria faberi (SETFA))

CCS(=O)(=O)Nc1c(OC(F)(F)C(F)F)ccc(C(=O)Nc2nnnn2C)c1Cl [Compound 1.086]
2 (2=20-39%): percentage damage caused to the plant, PRE Application IPOHE [4]
4 (4=60-79%): percentage damage caused to the plant, PRE Application SETFA (Setaria faberi (SETFA))
5 (5=80-100%): percentage damage caused to the plant, POST Application AMAPA [1] | percentage damage caused to the plant, PRE Application AMAPA [1] | percentage damage caused to the plant, POST Application AMARE [2] | percentage damage caused to the plant, PRE Application AMARE [2] | percentage damage caused to the plant, POST Application ECHCG [3] | percentage damage caused to the plant, PRE Application ECHCG [3] | percentage damage caused to the plant, POST Application IPOHE [4] | percentage damage caused to the plant, POST Application SETFA (Setaria faberi (SETFA))

CCN(c1c(OC(F)(F)F)ccc(C(=O)Nc2nnnn2C)c1Cl)S(=O)(=O)CC [Compound 1.078]
4 (4=60-79%): percentage damage caused to the plant, POST Application IPOHE [4] | percentage damage caused to the plant, PRE Application IPOHE [4]
5 (5=80-100%): percentage damage caused to the plant, POST Application AMAPA [1] | percentage damage caused to the plant, PRE Application AMAPA [1] | percentage damage caused to the plant, POST Application AMARE [2] | percentage damage caused to the plant, PRE Application AMARE [2] | percentage damage caused to the plant, PRE Application ECHCG [3] | percentage damage caused to the plant, POST Application SETFA (Setaria faberi (SETFA)) | percentage damage caused to the plant, PRE Application SETFA (Setaria faberi (SETFA))

CCCS(=O)(=O)Nc1c(OC(F)(F)F)ccc(C(=O)Nc2nnnn2C)c1Cl [Compound 1.072]
5 (5=80-100%): percentage damage caused to the plant, POST Application AMAPA [1] | percentage damage caused to the plant, PRE Application AMAPA [1] | percentage damage caused to the plant, POST Application AMARE [2] | percentage damage caused to the plant, PRE Application AMARE [2] | percentage damage caused to the plant, PRE Application ECHCG [3] | percentage damage caused to the plant, POST Application IPOHE [4] | percentage damage caused to the plant, PRE Application IPOHE [4] | percentage damage caused to the plant, POST Application SETFA (Setaria faberi (SETFA)) | percentage damage caused to the plant, PRE Application SETFA (Setaria faberi (SETFA))

CC(C)S(=O)(=O)Nc1c(OC(F)(F)F)ccc(C(=O)Nc2nnnn2C)c1Cl [Compound 1.076]
5 (5=80-100%): percentage damage caused to the plant, POST Application AMAPA [1] | percentage damage caused to the plant, PRE Application AMAPA [1] | percentage damage caused to the plant, POST Application AMARE [2] | percentage damage caused to the plant, PRE Application AMARE [2] | percentage damage caused to the plant, PRE Application ECHCG [3] | percentage damage caused to the plant, POST Application SETFA (Setaria faberi (SETFA)) | percentage damage caused to the plant, PRE Application SETFA (Setaria faberi (SETFA))
4 (4=60-79%): percentage damage caused to the plant, POST Application IPOHE [4]
3 (3=40-59%): percentage damage caused to the plant, PRE Application IPOHE [4]

Reference: patent US12715849B2, “Herbicidal tetrazole compounds” (SYNGENTA CROP PROTECTION AG, priority 2020, dated 2026)
